For the assay, the target named is T1, renin (Homo sapiens, UniProt P00797).
T1 sequence (P00797 67-406): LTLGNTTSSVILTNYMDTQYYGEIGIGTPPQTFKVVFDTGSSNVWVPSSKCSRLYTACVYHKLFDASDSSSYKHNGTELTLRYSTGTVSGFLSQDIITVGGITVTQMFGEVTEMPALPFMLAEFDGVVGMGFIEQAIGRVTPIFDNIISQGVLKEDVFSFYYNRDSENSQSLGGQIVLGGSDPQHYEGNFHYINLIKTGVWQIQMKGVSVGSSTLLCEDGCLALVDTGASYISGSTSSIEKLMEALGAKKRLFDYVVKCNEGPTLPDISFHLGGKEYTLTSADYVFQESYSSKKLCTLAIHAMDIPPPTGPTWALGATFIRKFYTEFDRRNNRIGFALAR
Description: renin inhibition, IC50 (method not described). It counts as biochemical.

This passage reports IC50 results from EP0312157A2, “Tetrapeptide renin inhibitors having a novel c-terminal amino acid” (Merck & Co., Inc., priority 1987, dated 1989).

Structures can show the parent of a compound that is named as a salt.

Take `CC(C)(C)OC(=O)N[C@@H](Cc1ccccc1)C(=O)N[C@@H](Cc1c[nH]cn1)C(=O)N[C@@H](CC1CCCCC1)[C@@H](O)CC(=O)N[C@@H](CCCCN)C(=O)NCc1ccncc1` [Example 1, N^α-t-butoxycarbonyl-L-Phenylalanyl-L-histidyl-(3S,4S)-4-amino-5-cyclohexyl-3-hydroxypentanoyl-L-lysyl-4-(aminomethyl)pyridine amide hydrochloride]: the IC50 was 38 nM.
The value for `CC(C)(C)OC(=O)N[C@@H](Cc1ccccc1)C(=O)N[C@@H](Cc1c[nH]cn1)C(=O)N[C@@H](CC1CCCCC1)[C@@H](O)CC(=O)N[C@@H](CCCCN)C(=O)NCC1CCNCC1` [Example 2, N^α-t-butoxycarbonyl-L-phenylalanyl-L-histidyl-{3S,4S)-4-amino-5-cyclohexyl-3-hydroxy-pentanoyl-L-lysyl-4-(aminomethyl)-piperidinamide dihydrochloride] was 338 nM; that for `CN(CCc1ccccn1)C(=O)[C@H](CCCCN)NC(=O)C[C@H](O)[C@H](CC1CCCCC1)NC(=O)[C@H](Cc1c[nH]cn1)NC(=O)[C@H](Cc1ccccc1)NC(=O)OC(C)(C)C` [Example 5, N^α-t-butoxycarbonyl-L-phenylalanyl-L-histidyl-(3S,4S)-4-amino-5-cyclohexyl-3-hydroxypentanoyl-L-lysyl-2-(2-methylaminoethyl)-pyridinamide acetate] was 225 nM; that for `COc1ccc(C[C@H](NC(=O)OC(C)(C)C)C(=O)N[C@@H](Cc2c[nH]cn2)C(=O)N[C@@H](CC2CCCCC2)[C@@H](O)CC(=O)N[C@@H](CCCCN)C(=O)NCc2ccncc2)cc1` [Example 6, N^α-t-butoxycarbonyl-O-methyl-L-tyrosyl-L-histidyl-(3S,4S)-4-amino-5-cyclohexyl-3-hydroxy-pentanoyl-L-lysyl-4-(aminomethyl)pyridine amide] was 42 nM.
`CC(C)(C)OC(=O)N[C@@H](Cc1ccccc1)C(=O)N[C@@H](Cc1c[nH]cn1)C(=O)N[C@@H](CC1CCCCC1)[C@@H](O)CC(=O)N[C@@H](CCCCN)C(=O)N[C@H]1CCCCNC1=O` [Example 9, N^α-t-butoxycarbonyl-L-phenylalanyl-L-histidyl-(3S,4S)-4-amino-5-cyclohexyl-3-hydroxypentanoyl-L-lysyl-L-3-amino-2-oxoazepine amide hydrochloride] registered a half-inhibitory concentration (IC50) of 26.4 nM.
`CC(C)(C)OC(=O)N[C@@H](Cc1ccccc1)C(=O)N[C@@H](Cc1c[nH]cn1)C(=O)N[C@@H](CC1CCCCC1)[C@@H](O)CC(=O)N[C@@H](CN)C(=O)NCc1ccncc1` [Example 10, N^α-t-butoxycarbonyl-L-phenylalanyl-L-histidyl-(3S,4S)-4-amino-5-cyclohexyl-3-hydroxypentanoyl-L-2,4-diaminopropionyl-4-(aminomethyl)pyridine amide hydrochloride] yielded an IC50 of 37 nM.
With `NCCCC[C@H](NC(=O)C[C@H](O)[C@H](CC1CCCCC1)NC(=O)[C@H](Cc1c[nH]cn1)NC(=O)[C@H](Cc1ccccc1)NC(=O)N1CCOCC1)C(=O)NCc1ccncc1` [Example 23, N-[(Morpholin-4-yl)carbonyl]Phe-His-ACHPA-Lys-NHCH2(pyridin-4-y1)], the IC50 was determined as 12 nM.
The compound `CC(C)(C)OC(=O)NCCOC(=O)N[C@@H](Cc1ccccc1)C(=O)N[C@@H](Cc1c[nH]cn1)C(=O)N[C@@H](CC1CCCCC1)[C@@H](O)CC(=O)N[C@@H](CCCCN)C(=O)NCC1CCNCC1` [Example 26, Boc-NHCH2CH2OCO-Phe-His-ACHPA-Lys-NHCH2(piperidin-4-yl)] came in with a concentration for half-maximal inhibition (IC50) of 39 nM.
The value for `CC(C)S(=O)(=O)N[C@@H](Cc1ccccc1)C(=O)N[C@@H](Cc1c[nH]cn1)C(=O)N[C@@H](CC1CCCCC1)[C@@H](O)CC(=O)N[C@@H](CCCCN)C(=O)NCC1CCNCC1` [Example 27, i-PrSO2-Phe-His-ACHPA-Lys-CH2(piperidin-4-yl)] was 159 nM; that for “N^α-t-butoxycarbonyl-L-phenylalanyl-L-histidyl-(3S,4S)-4-amino-5-cyclohexyl-3-hydroxypentanoyl-L-lysyl-N-(2-aminoethyl)-morpholine amide dihydrochloride [Example 12]” was 68.9 nM.

One may read the IC50 as the concentration at which inhibition is half-maximal. A low value points to higher potency.
